From paper PMC12560828, “Chemical structure drives developmental toxicity of alkyl-substituted naphthalenes in zebrafish” (Environment international, 2025)

Tests used:
[1] = test system: zebrafish larvae, 120 hpf; experiment: Larval photomotor response (LPR) assay after vial exposure; assay type: in vivo, Danio rerio; settings: LPR
Method: (§1) When embryos were 6 hpf they were bleached in groups of 1000 or less to limit bacterial growth in sealed vials. Embryos were placed in a strainer for transfer between solutions in 500 mL containers. […] Pools of eight embryos were placed into 2 mL clear glass screw cap exposure vials with polyvinyl-faced pulp liner (Avantar Radnor, PA, United States) using a glass Pasteur pipette. Excess EM was removed, and 2 mL of fresh EM was immediately added. A total of 10 uL of 200x working stock (in DMSO) was added to each vial, then immediately capped and inverted three times to mix. […] Vials were loaded into a custom 3D printed vial holder for slow end-over-end rotation in a dark 28 °C incubator overnight. […] At 24 hpf, embryos were removed from exposure vials and singulated into 96-well plates loaded with 100 μL chemical-free EM. Each exposure vial group was maintained in plate columns. After loading into 96-well plates, embryos were assessed for 24-hour mortality. For the remainder of the exposure, plates were kept stationary at 28 °C in the dark, until 120 hpf when morphology screening and the larval photo motor response (LPR) assay were conducted, section 2.3.2 and section 2.3.3, respectively.
Each treatment group was replicated over four vials, resulting in 32 embryos per treatment, split over two replicate 96-well plates per chemical. […] Vial groups of plated larvae were tracked to assess the impact of the vial on the results. All reported concentrations were nominal water concentrations and are included in SI-T4.
The LPR assay was conducted at 120 hpf. […] Larval movement was tracked throughout minutes 6–24. Animals dead or morphologically abnormal were excluded from the analysis, and if more than 30 % of the wells in a treatment group were excluded, the treatment was removed.
Movement values were binned into 6s intervals, log normalized and used to calculate area under the curve (AUC). AUC values from the first cycle after calibration were used to calculate the LEL for each period (light and dark).

[2] = test system: early life stage zebrafish (Danio rerio) embryos; experiment: Developmental toxicity morphology screen, sealed rotating vial exposure; assay type: in vivo; set-up: bmd, MO24 / bmd, MORT / bmd, ANY_ / bmd, AXIS / bmd, CRAN / bmd, EDEM / bmd, LTRK / bmd, MUSC / bmdL, ANY_ / bmdU, ANY_ / bmdL, AXIS / bmdU, AXIS / bmdL, CRAN / bmdU, CRAN / bmdL, EDEM / bmdU, EDEM / bmdL, LTRK / bmdU, LTRK / bmdL, MO24 / bmdU, MO24 / bmdL, MORT / bmdU, MORT: unit not given here; settings: for BMC50 Any effect: Fig. 2 heatmap, exposure 6-24 hpf in vials, summary of all endpoints; for any effect BMD50: SI-T5; for bmd, ANY_: morphology endpoint ANY_ (any effect); for bmd, MO24: endpoint MO24
Method: as §1
Each treatment group was replicated over four vials, resulting in 32 embryos per treatment, split over two replicate 96-well plates per chemical. […] All reported concentrations were nominal water concentrations and are included in SI-T4.
At 24 hpf embryos were assessed for mortality (MO24). At 120 hpf embryos were assessed for abnormality in […] morphological endpoints: mortality (MORT), edemas (EDEM), bent axis (AXIS), touch response (TCHR), craniofacial (CRAN), muscular/cardiovascular (MUSC), lower trunk (LRTK), brain (BRAN), skin (SKIN), and notochord malformations (NC). Morphological assessments were made by a team of three to four individuals. The team was blinded to the identity, plate layout, and concentrations of the chemicals, thereby minimizing bias in morphological screening assessment. To ensure the assessments were consistent, concentration–response reproducibility of a parathion ethyl quality control plate was performed along with each experimental exposure set up. Details of all measured endpoints can be found at Developmental toxicity zebrafish phenotype atlas. […] Each endpoint was scored as a binary presence/absence and scores were compiled into an “Any effect” endpoint, the presence of abnormality in any individual endpoint.
The Any effect percent was used to calculate the BMC50, 50 % change relative to the background for each endpoint and chemical. All values were reported as the nominal exposure concentration.

[3] = period dark, round 1, conc 3.125
[4] = period dark, round 1, conc 6.25
[5] = period dark, round 1, conc 12.5
[6] = period light, round 1, conc 3.125
[7] = period light, round 1, conc 6.25
[8] = period light, round 1, conc 12.5

Row | SMILES | fold_change [1, 3] | fold_change [1, 4] | fold_change [1, 5] | fold_change ([1]; period dark, round 1, conc 25) | fold_change [1, 6] | fold_change [1, 7] | fold_change [1, 8] | fold_change ([1]; period light, round 1, conc 25) | BMC50 EDEM (pericardial and/or yolk sac edema at 120 hpf) ([2]; Fig. 2, nominal concentration) | BMC50 MO24 (mortality at 24 hpf) ([2]; Fig. 2, nominal concentration) | BMC50 MORT (mortality at 120 hpf) ([2]; Fig. 2, nominal concentration) | BMC50 Any effect ([2]; nominal concentration) | any effect BMD50 [2] | bmd, ANY_ ([2]; benchmark dose) | fold_change ([1]; period dark, round 1, conc 50) | fold_change ([1]; period light, round 1, conc 50) | bmd, MO24 ([2]; benchmark dose) | bmd, MORT ([2]; benchmark dose, endpoint MORT) | also measured
1 | CC(C)(C)c1ccc2ccc(C(C)(C)C)cc2c1 [2,7-di-tert-butylnaphthalene] | -0.2175 | -0.4542 | -0.5803 | -1.44 | 0.7527 | 0.7301 | 0.5841 | 0.3464 | 33.6 µM | no MO24 BMC50 | 41.3 µM | 24.7 µM | 24.66 µM | 24.6598 | – | – | – | – | bmd, MORT ([2]; endpoint MORT, benchmark dose): 41.3049; bmdL, MORT ([2]; endpoint MORT, lower limit of benchmark dose): 34.7649; bmdU, MORT ([2]; endpoint MORT, upper limit of benchmark dose): 51.9197; bmd, EDEM ([2]; morphology endpoint EDEM, benchmark dose): 33.6463; bmdL, EDEM ([2]; morphology endpoint EDEM, lower limit of benchmark dose): 26.4386; bmdU, EDEM ([2]; morphology endpoint EDEM, upper limit of benchmark dose): 67.8341
2 | Cc1ccc2c(C)c(C)ccc2c1C [1,2,5,6-tetramethylnaphthalene] | -0.03133 | -0.4187 | -0.4196 | -0.1628 | 0.2549 | -0.3197 | 0.8672 | -0.1531 | – | – | – | – | – | – | -0.3813 | 0.1565 | – | – | –
3 | Cc1ccc(C)c2ccccc12 [1,4-dimethylnaphthalene] | 0.2846 | -0.05841 | -0.1506 | -0.2067 | 0.303 | -0.4509 | 1.1 | 0.6023 | – | 30.4 µM | 28.3 µM | 24.9 µM | 24.93 µM | 24.9263 | – | – | 30.4433 | 28.3398 | –
4 | Cc1cc2cccc(C)c2cc1C [1,6,7-trimethylnaphthalene] | -0.2752 | -0.07056 | -0.09309 | – | -0.921 | -0.5316 | -0.2101 | – | 34.7 µM | 38.9 µM | 31.5 µM | 21.4 µM | 21.39 µM | 21.386 | – | – | 38.9242 | 31.4823 | fold_change ([1]; period dark, round 2, conc 12.8): -0.1665; fold_change ([1]; period dark, round 2, conc 16): -0.296; fold_change ([1]; period dark, round 2, conc 20): -0.09002; fold_change ([1]; period light, round 2, conc 12.8): 0.6308; fold_change ([1]; period light, round 2, conc 16): -0.8625; fold_change ([1]; period light, round 2, conc 20): 0.7418; BMC50 AXIS (curved or bent body axis at 120 hpf) ([2]; Fig. 2, nominal concentration): 32.1 µM; BMC50 CRAN (craniofacial malformation at 120 hpf) ([2]; Fig. 2, nominal concentration): 28.2 µM; BMC50 LTRK (lower trunk and/or caudal fin at 120 hpf) ([2]; Fig. 2, nominal concentration): 32.9 µM; bmd, AXIS ([2]; benchmark dose, morphology endpoint AXIS): 32.075; bmd, CRAN ([2]; benchmark dose, morphology endpoint CRAN): 28.1944; bmd, EDEM ([2]; benchmark dose, morphology endpoint EDEM): 34.7005; bmd, LTRK ([2]; benchmark dose, morphology endpoint LTRK): 32.865
5 | Cc1cc2ccccc2cc1C [2,3-dimethylnaphthalene] | -0.07813 | -0.1051 | -0.1104 | -0.9852 | -0.3145 | -0.003485 | -1.16 | -0.6826 | – | – | – | 46.6 µM | 46.56 µM | 46.5587 | -1.366 | -0.533 | – | – | –
